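How tested: cells in 96-well plates exposed to compound for 48 hours at five concentrations. The concentration for 50% growth inhibition is given as GI50. TGI: concentration producing complete growth inhibition.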
Key:
Test in all cases: inhibition of tumour cell growth, NCI panel, 48 h
MDA-MB-231 breast = system: MDA-MB-231 breast
NCI-H23 lung = system: NCI-H23 lung
SR leukemia = system: SR leukemia
OVCAR-8 ovarian = system: OVCAR-8 ovarian
MOLT-4 leukemia = system: MOLT-4 leukemia
MDA-MB-435 = system: MDA-MB-435
SK-OV-3 ovarian = system: SK-OV-3 ovarian
CAKI-1 renal = system: CAKI-1 renal
SNB-75 CNS = system: SNB-75 CNS
TK-10 renal = system: TK-10 renal
HCT-15 colon = system: HCT-15 colon
SK-MEL-5 melanoma = system: SK-MEL-5 melanoma
HCT-116 colon = system: HCT-116 colon
HOP-92 NSCLC = system: HOP-92 NSCLC
RPMI-8226 leukemia = system: RPMI-8226 leukemia
CCRF-CEM leukemia = system: CCRF-CEM leukemia
SK-MEL-2 melanoma = system: SK-MEL-2 melanoma
IGROV1 ovarian = system: IGROV1 ovarian
NCI-H522 lung = system: NCI-H522 lung
BT-549 breast = system: BT-549 breast
SF-268 CNS = system: SF-268 CNS
SNB-19 CNS = system: SNB-19 CNS
HOP-62 NSCLC = system: HOP-62 NSCLC
DU-145 prostate = system: DU-145 prostate
T-47D breast = system: T-47D breast
M14 melanoma = system: M14 melanoma
UACC-62 melanoma = system: UACC-62 melanoma
OVCAR-3 ovarian = system: OVCAR-3 ovarian
OVCAR-5 ovarian = system: OVCAR-5 ovarian
NCI-H226 lung = system: NCI-H226 lung
UACC-257 melanoma = system: UACC-257 melanoma
COLO 205 colon = system: COLO 205 colon
MDA-MB-468 breast = system: MDA-MB-468 breast
SN12C renal = system: SN12C renal
MALME-3M melanoma = system: MALME-3M melanoma
HS 578T breast = system: HS 578T breast
HT29 colon = system: HT29 colon
LOX IMVI melanoma = system: LOX IMVI melanoma
SK-MEL-28 melanoma = system: SK-MEL-28 melanoma
A549 NSCLC = system: A549 NSCLC
OVCAR-4 ovarian = system: OVCAR-4 ovarian
NCI-H460 lung = system: NCI-H460 lung
EKVX NSCLC = system: EKVX NSCLC
SW-620 colon = system: SW-620 colon
NCI/ADR-RES ovarian = system: NCI/ADR-RES ovarian
KM12 colon = system: KM12 colon
UO-31 renal = system: UO-31 renal
A498 renal = system: A498 renal
PC-3 prostate = system: PC-3 prostate
HL-60(TB) leukemia = system: HL-60(TB) leukemia
RXF 393 renal = system: RXF 393 renal
HCC-2998 colon = system: HCC-2998 colon
MCF7 breast = system: MCF7 breast
ACHN renal = system: ACHN renal
SF-539 CNS = system: SF-539 CNS
K-562 leukemia = system: K-562 leukemia
SF-295 CNS = system: SF-295 CNS
U251 CNS = system: U251 CNS
786-0 renal = system: 786-0 renal

COc1ccc2[nH]c(O)c(N=NC(=O)COc3ccc(NC(=O)Nc4ccc(Cl)cc4)cc3)c2c1
GI50 (MDA-MB-231 breast): 1.8 µM | TGI (MDA-MB-231 breast): 3.75 µM | GI50 (NCI-H23 lung): 2.68 µM | TGI (NCI-H23 lung): 8.54 µM | GI50 (SR leukemia): 4.15 µM | TGI (SR leukemia): > 100 µM | GI50 (OVCAR-8 ovarian): 10.5 µM | TGI (OVCAR-8 ovarian): 37.9 µM | GI50 (MOLT-4 leukemia): 9.72 µM | TGI (MOLT-4 leukemia): 51.2 µM | GI50 (MDA-MB-435): 1.75 µM | TGI (MDA-MB-435): 4.77 µM | GI50 (SK-OV-3 ovarian): 12.7 µM | TGI (SK-OV-3 ovarian): 27.6 µM | GI50 (CAKI-1 renal): 16.6 µM | TGI (CAKI-1 renal): 33.7 µM | GI50 (SNB-75 CNS): 8.94 µM | TGI (SNB-75 CNS): 27.7 µM | GI50 (TK-10 renal): 20.8 µM | TGI (TK-10 renal): 48.3 µM | GI50 (HCT-15 colon): > 100 µM | TGI (HCT-15 colon): > 100 µM | GI50 (SK-MEL-5 melanoma): 5.9 µM | TGI (SK-MEL-5 melanoma): 18.9 µM | GI50 (HCT-116 colon): 2.96 µM | TGI (HCT-116 colon): 11.5 µM | GI50 (HOP-92 NSCLC): 2.43 µM | TGI (HOP-92 NSCLC): 7.31 µM | GI50 (RPMI-8226 leukemia): 6.58 µM | TGI (RPMI-8226 leukemia): 68.8 µM | GI50 (CCRF-CEM leukemia): 5.39 µM | TGI (CCRF-CEM leukemia): 26.3 µM | GI50 (SK-MEL-2 melanoma): 2.08 µM | TGI (SK-MEL-2 melanoma): 4.41 µM | GI50 (IGROV1 ovarian): 8.74 µM | TGI (IGROV1 ovarian): 21.6 µM | GI50 (NCI-H522 lung): 2.23 µM | TGI (NCI-H522 lung): 5.85 µM | GI50 (BT-549 breast): 12.1 µM | TGI (BT-549 breast): 26.6 µM | GI50 (SF-268 CNS): 3.3 µM | TGI (SF-268 CNS): 10.4 µM | GI50 (SNB-19 CNS): 3 µM | TGI (SNB-19 CNS): 10.9 µM | GI50 (HOP-62 NSCLC): 2.54 µM | TGI (HOP-62 NSCLC): 6.4 µM | GI50 (DU-145 prostate): 4.14 µM | TGI (DU-145 prostate): 20.7 µM | GI50 (T-47D breast): 9.57 µM | TGI (T-47D breast): 23.9 µM | GI50 (M14 melanoma): 2.61 µM | TGI (M14 melanoma): 7.88 µM | GI50 (UACC-62 melanoma): 2.23 µM | TGI (UACC-62 melanoma): 5.8 µM | GI50 (OVCAR-3 ovarian): 2.21 µM | TGI (OVCAR-3 ovarian): 6.34 µM | GI50 (OVCAR-5 ovarian): 6.34 µM | TGI (OVCAR-5 ovarian): 20 µM | GI50 (NCI-H226 lung): 3.74 µM | TGI (NCI-H226 lung): 16.8 µM | GI50 (UACC-257 melanoma): 13.1 µM | TGI (UACC-257 melanoma): 28.2 µM | GI50 (COLO 205 colon): 3.63 µM | TGI (COLO 205 colon): 13.2 µM | GI50 (MDA-MB-468 breast): 1.85 µM | TGI (MDA-MB-468 breast): 4.61 µM | GI50 (SN12C renal): 3.03 µM | TGI (SN12C renal): 11.4 µM | GI50 (MALME-3M melanoma): 1.77 µM | TGI (MALME-3M melanoma): 3.61 µM | GI50 (HS 578T breast): 2.8 µM | TGI (HS 578T breast): 13.4 µM | GI50 (HT29 colon): 3.22 µM | TGI (HT29 colon): 14 µM | GI50 (LOX IMVI melanoma): 1.87 µM | TGI (LOX IMVI melanoma): 3.81 µM | GI50 (SK-MEL-28 melanoma): 1.81 µM | TGI (SK-MEL-28 melanoma): 3.56 µM | GI50 (A549 NSCLC): 8.39 µM | TGI (A549 NSCLC): 44.4 µM | GI50 (OVCAR-4 ovarian): 2.94 µM | TGI (OVCAR-4 ovarian): 11 µM | GI50 (NCI-H460 lung): 1.84 µM | TGI (NCI-H460 lung): 3.97 µM | GI50 (EKVX NSCLC): 18.7 µM | TGI (EKVX NSCLC): > 100 µM | GI50 (SW-620 colon): 2.61 µM | TGI (SW-620 colon): 13.2 µM | GI50 (NCI/ADR-RES ovarian): > 100 µM | TGI (NCI/ADR-RES ovarian): > 100 µM | GI50 (KM12 colon): 3.21 µM | TGI (KM12 colon): 13.4 µM | GI50 (UO-31 renal): > 100 µM | TGI (UO-31 renal): > 100 µM | GI50 (A498 renal): 17.1 µM | TGI (A498 renal): 31.8 µM | GI50 (PC-3 prostate): 3.39 µM | TGI (PC-3 prostate): 14.9 µM | GI50 (HL-60(TB) leukemia): 23.6 µM | TGI (HL-60(TB) leukemia): > 100 µM | GI50 (RXF 393 renal): 6.26 µM | TGI (RXF 393 renal): 22.2 µM | GI50 (HCC-2998 colon): 5.33 µM | TGI (HCC-2998 colon): 25.9 µM | GI50 (MCF7 breast): 2.88 µM | TGI (MCF7 breast): 10.2 µM | GI50 (ACHN renal): 19.3 µM | TGI (ACHN renal): 58.8 µM | GI50 (SF-539 CNS): 2.42 µM | TGI (SF-539 CNS): 6.86 µM | GI50 (K-562 leukemia): 5.36 µM | TGI (K-562 leukemia): > 100 µM | GI50 (SF-295 CNS): 6.63 µM | TGI (SF-295 CNS): 20.1 µM | GI50 (U251 CNS): 4.16 µM | TGI (U251 CNS): 14.5 µM | GI50 (786-0 renal): 7.32 µM | TGI (786-0 renal): 24.9 µM
